Numbers after ± are expanded uncertainties.
What was measured:
[1] = 101 kPa, Liquid; for mass density: Pycnometric method
[2] = wn = mass fraction of the nth substance listed; details: 101 kPa, Liquid; for mass density: Pycnometric method

CCCCn1cc[n+](C)c1.F[B-](F)(F)F [1-butyl-3-methylimidazolium tetrafluoroborate]
[1]
Details	mass density [kg/m3]	viscosity [mPa·s]
298.15 K	1200.6 ± 0.7	93.81 ± 2.3
303.15 K	1197.7 ± 0.7	71.76 ± 1.4
308.15 K	1194.8 ± 0.7	56.41 ± 0.85
313.1 K	1191.5 ± 0.7	45.6 ± 0.72
318.15 K	1188.4 ± 0.7	37.32 ± 0.6

CCCCn1cc[n+](C)c1.F[B-](F)(F)F [1-butyl-3-methylimidazolium tetrafluoroborate] + CN1CCCC1=O
[2], w1 = 1
Details	mass density [kg/m3]	viscosity [mPa·s]
298.15 K	1200.6 ± 0.7	93.81 ± 2.3
303.15 K	1197.7 ± 0.7	71.76 ± 1.4
308.15 K	1194.8 ± 0.7	56.41 ± 0.85
313.1 K	1191.5 ± 0.7	45.6 ± 0.72
318.15 K	1188.4 ± 0.7	37.32 ± 0.6

CN1CCCC1=O [N-methylpyrrolidone]
[1]
Details	mass density [kg/m3]	viscosity [mPa·s]
298.15 K	1028.3 ± 0.6	1.683 ± 0.026
303.15 K	1024.5 ± 0.6	1.558 ± 0.025
308.15 K	1020.1 ± 0.6	1.47 ± 0.023
313.1 K	1015.8 ± 0.6	1.337 ± 0.021
318.15 K	1011.7 ± 0.6	1.248 ± 0.02

CN1CCCC1=O [N-methylpyrrolidone] + CCCCn1cc[n+](C)c1.F[B-](F)(F)F
[2]
Details	mass density, 298.15 K [kg/m3]	mass density, 303.15 K [kg/m3]	mass density, 308.15 K [kg/m3]	mass density, 313.1 K [kg/m3]	mass density, 318.15 K [kg/m3]	viscosity, 298.15 K [mPa·s]	viscosity, 303.15 K [mPa·s]	viscosity, 308.15 K [mPa·s]	viscosity, 313.1 K [mPa·s]	viscosity, 318.15 K [mPa·s]
w2 = 0	1028.3 ± 0.6	1024.5 ± 0.6	1020.1 ± 0.6	1015.8 ± 0.6	1011.7 ± 0.6	1.683 ± 0.026	1.558 ± 0.025	1.47 ± 0.023	1.337 ± 0.021	1.248 ± 0.02
w2 = 0.5	1115.6 ± 0.6	1111.8 ± 0.6	1107.9 ± 0.7	1104.1 ± 0.7	1100.3 ± 0.7	8.196 ± 0.22	7.291 ± 0.11	6.382 ± 0.099	5.63 ± 0.087	5.045 ± 0.085
w2 = 0.6999	1148.8 ± 0.7	1145.6 ± 0.7	1142 ± 0.7	1138.3 ± 0.7	1135 ± 0.7	19.33 ± 0.47	16.03 ± 0.25	13.51 ± 0.21	11.63 ± 0.18	10.07 ± 0.15
w2 = 0.8981	1182 ± 0.7	1179.4 ± 0.7	1176.2 ± 0.7	1173.1 ± 0.7	1170.1 ± 0.7	49.46 ± 1.1	39.75 ± 0.63	32.43 ± 0.51	26.93 ± 0.41	22.47 ± 0.31

From the NIST ThermoML archive (doi:10.1021/je200886j)
